The values that follow are results of earlier work, collected in US7205435B2 (priority 2001, dated 2007).

The subject of this data set is mouse phrenic nerve. To be noted: in vivo.

Regarding `CC(C)C[C@H](NP(=O)(O)O[C@@H]1O[C@@H](C)[C@H](O)[C@@H](O)[C@H]1O)C(=O)N[C@@H](Cc1c[nH]c2ccccc12)C(=O)O` [phosphoramidon], the effective dose is recorded as 0.2 mM.
